According to publication PMC8081377 (Mutagenesis, 2021):
Like-named read-outs stand apart in the source and are kept apart here.

Key:
[1] = system: reconstructed human skin (RS) tissues; settings: cited from earlier work; for detection of DNA damage, RS Comet assay versus RSMN assay: direct treatment with genotoxic metabolites of 2-AAF
RS tissues = settings: cited from earlier work; for RSMN result with the 72-h protocol: contract research lab
[2] = system: EpiDerm™ EPI-200-MNA skin tissues
[3] = topically-applied; cited from earlier work
[4] = system: CHO, CHL, V79, HuLy cells; settings: cited from earlier work
[5] = system: V79, CHO, CHL, HuLy, TK6, HepG2, L5178Y cells; settings: cited from earlier work
[6] = system: EpiDerm™ EPI-200-MNA skin tissues; settings: for top/maximum dose tested, limited by excessive or strong cytotoxicity: % VCC or % BN
stomach, liver = settings: rats, daily treatment for 3 days, initial evaluation; cited from earlier work
multiple tissues = settings: mice, single i.p. injection; cited from earlier work
[7] = cited from earlier work
mouse lymphoma cells = settings: cited from earlier work
[8] = multiple treatments of RS tissues
[9] = three treatments, vs solvent control
[10] = two treatments, vs solvent control

CC(=O)Nc1ccc2c(c1)Cc1ccccc1-2 [2-Acetylaminofluorene (2-AAF), 2-Acetylaminofluorene]
DNA damage in the RS Comet assay [1]: weak, but statistically significant and reproducible increase in DNA damage
response in the RS Comet assay [1, 8]: significant response
response in the RSMN assay (RS tissues; [8]): not in the RSMN assay
classification in the RSMN assay by Lab B ([2]; overall call): negative
classification in the RSMN assay by Lab C ([2]; overall call): negative
classification in the RSMN assay by Lab D ([2]; overall call): negative
% MN-BN response in individual experiment(s), Lab B, 72-h protocol [2, 9]: without a significant response
% MN-BN response in individual experiment(s), Lab C, 72-h protocol [2, 9]: without a significant response
% MN-BN response in individual experiment(s), Lab B, 48-h protocol [2, 10]: without a significant response
% MN-BN response in individual experiment(s), Lab C, 48-h protocol [2, 10]: without a significant response
% MN-BN response in individual experiment(s), Lab D, 48-h protocol [2, 10]: no significant increase
metabolism in human skin explants [3]: evidence for metabolism

Nc1ccn([C@@H]2O[C@H](CO)[C@@H](O)[C@@H]2O)c(=O)n1 [Cytosine arabinoside]
in vitro chromosome aberration tests [4]: positive
classification in the RSMN assay by Lab B ([2]; overall call): negative
% MN-BN response in individual experiment(s), Lab B, 72-h protocol [2, 9]: Negative results
% MN-BN response in individual experiment(s), Lab B, 48-h protocol [2, 10]: did not show a significant increase
in vitro MN tests [5]: positive
top/maximum dose tested, limited by excessive or strong cytotoxicity ([6]; lab(s) as stated in the text): 48 µg/cm^2

ONc1ccc2c(c1)Cc1ccccc1-2 [N-hydroxy-2-aminofluorene]
detection of DNA damage, RS Comet assay versus RSMN assay [1]: more efficiently detected in the RS Comet assay than in the RSMN assay

[Cl][Cd][Cl] [Cadmium chloride (CdCl2), Cadmium chloride]
in vivo comet assay result, stomach (stomach, liver): positive
in vivo comet assay result, multiple tissues (multiple tissues): negative results
classification in the RSMN assay by Lab A ([2]; overall call): positive
classification in the RSMN assay by Lab B ([2]; overall call): negative
classification in the RSMN assay by Lab C ([2]; overall call): positive
% MN-BN response in individual experiment(s), Lab A, 72-h protocol [2, 9]: clear increase
% MN-BN response in individual experiment(s), Lab B, 72-h protocol [2, 9]: negative results
% MN-BN response in individual experiment(s), Lab A, 48-h protocol [2, 10]: without any significant increase
% MN-BN response in individual experiment(s), Lab B, 48-h protocol [2, 10]: No detectable increase
% MN-BN response in individual experiment(s), Lab C, 48-h protocol [2, 10]: negative
top/maximum dose tested, limited by excessive or strong cytotoxicity ([6]; lab(s) as stated in the text): 160 µg/cm^2
doses that caused 50% cytotoxicity ([6]; Lab A, 48-h protocol, Phase 2c): 100–160 µg/cm^2

Cc1c2ccccc2c(C)c2c1ccc1ccccc12 [7,12-Dimethylbenz[a]thracene (DMBA), 7,12-Dimethylbenz[a]anthracene]
result in a previous RSMN study (RS tissues; % VCC not used as cytotoxicity measure, higher doses tested): positive
% MN-BN response in individual experiment(s), Lab A, 48-h protocol [2]: did not increase
% MN-BN response in individual experiment(s), Lab A, 72-h protocol [2]: did not induce an increase
classification in the RSMN assay by Lab A [2]: negative
top dose, limited by precipitation on the surface of the skin tissues ([6]; lab(s) as stated in the text): 240 µg/cm^2

O=P1(N(CCCl)CCCl)NCCCO1 (stereo not drawn) [cyclophosphamide]
RSMN result with the 72-h protocol (RS tissues): positive results

c1ccc2c(c1)cc1ccc3cccc4ccc2c1c34 [B[a]P]
RSMN result with the 72-h protocol (RS tissues): positive results

CC(=O)N(O)c1ccc2c(c1)Cc1ccccc1-2 [N-hydroxy-2-acetylaminofluorene]
detection of DNA damage, RS Comet assay versus RSMN assay [1]: more efficiently detected in the RS Comet assay than in the RSMN assay

C=CCc1ccc(O)c(OC)c1 [Eugenol]
in vitro chromosome aberration tests ([4]; ref Supplementary Table S1): positive findings
classification in the RSMN assay by Lab A ([2]; overall call): positive
% MN-BN response in individual experiment(s), Lab A, 72-h protocol [2, 9]: significant increase in the % MN-BN was seen at the two highest doses
% MN-BN response in individual experiment(s), Lab A, 48-h protocol [2, 10]: significant increase in % MN-BN only at one mid-dose
carcinogenicity tests ([7]; ref Supplementary Table S1): negative
in vitro MN tests ([5]; ref Supplementary Table S1): positive findings
top/maximum dose tested, limited by excessive or strong cytotoxicity ([6]; lab(s) as stated in the text): 80–100 µg/cm^2

Cn1c(N)nc2c3cccnc3ccc21 [2-Amino-3-methylimidazo[4,5-f]quinolone]
detection in the RS Comet assay ([1]; after multiple treatments): not detected
% MN-BN response in individual experiment(s), Lab A, 72-h protocol [2, 9]: Significant increases
% MN-BN response in individual experiment(s), Lab A, 48-h protocol [2, 10]: no increase
IARC class ([7]; carcinogen classification): 2A
% BN (excessive cytotoxicity) ([6]; at ≥150 µg/cm^2, 48-h protocol, Lab A): < 20 % BN

C1=Cc2cc3cccc4ccc5ccc1c2c5c43 [Cyclopenta[c,d]pyrene (CPPE), Cyclopenta[c,d]pyrene]
classification in the RSMN assay by Lab B ([2]; overall call): positive
% MN-BN response in individual experiment(s), Lab B, 72-h protocol [2, 9]: significant increase
% MN-BN response in individual experiment(s), Lab C, 48-h protocol [2, 10]: negative results
skin tumours ([7]; mice, dermal application, ref Supplementary Table S1): induce skin tumours
maximum dose tested without exceeding the cytotoxicity thresholds ([6]; lack of excessive cytotoxicity, 48-h protocol): 1600 µg/cm^2
mouse lymphoma assay (mouse lymphoma cells): positive
